Source: US11028061B2, “Modulators of myocyte lipid accumulation and insulin resistance and methods of use thereof” (Sanford Burnham Prebys Medical Discovery Institute, priority 2015, dated 2021)

Experiments:
[1] = system: primary murine skeletal myocytes; assay: TAG accumulation in primary murine skeletal myocytes; format: cell-based; settings: Mus musculus; primary murine skeletal myocytes; read-out: Activity Score (IC50), triacylglyceride (TAG) accumulation
human skeletal myotubes = assay: Triglyceride accumulation in oleate-loaded human skeletal myotubes; format: cell-based
Description: Human skeletal myotubes were differentiated for 8 days. On day 7, 100 μM of oleic acid complexed to fatty acid-free BSA was added to the cells with the indicated concentration of test compound for 24 hours. Following incubation with oleate and compound, cells were formaldehyde fixed and stained with AdipoRed™ (Lonza). Triglyceride accumulation was measured using signal intensity at excitation 540/emission 590 nm (Bio-Tek Instruments, Inc.). Dose response curves were generated in Prism 6 (GraphPad Software). EC50 values were calculated using non-linear regression analysis. For biochemical measurement of triglyceride, human skeletal myotubes were incubated with oleate-BSA and test compound as described above. After 24 hour incubation, cells were collected with a lysis buffer containing 0.1% IGEPAL CA-630 (Sigma-Aldrich) in PBS. The harvested cells were sonicated for 5 seconds and then centrifuged at 10,000×g for 10 minutes at 4° C. The supernatant was removed and stored on ice. TAG levels were quantified using Infinity™ Triglycerides Liquid Stable Reagent (Thermo Scientific), following the manufacturer's instructions for colorimetric assay.
Student's t-test, Mann Whitney test, one-way ANOVA with Bonferroni post hoc test, or two-way ANOVA with Tukey post hoc test was performed to determine statistical significance as indicated. […]

[2] = Plasma concentration in high fat diet mice; format: in vivo; settings: male, C57BL/6J, mouse, sc, 4 hours following the final dose, 50 mg/kg s.c. once daily for 7 days
Description: (§1) All animal studies were performed in accordance with the National Institute of Health guidelines for humane treatment of animals and approved by the IACUC of the Sanford Burnham Prebys Medical Discovery Institute at Lake Nona. Six week old male C57BL/6J mice were obtained from Jackson Laboratory (stock number 000664) and acclimated for 1 week prior to study. Mice were maintained on standard chow or a 60% high fat diet (Research Diets, USA) for 8 weeks. SBI-993 was dissolved in a vehicle containing 2% DMSO, 2% Tween-80, and 96% water (pH9.0). Seven weeks after HFD feeding, mice were subcutaneously injected with SBI-993 (50 mg/kg mouse body weight) once daily for 7 days. Each group contains 6-10 mice and three independent experiments were conducted.
(§2) To determine if the effects conferred by SBI-477 observed in myocytes in culture are relevant in vivo, studies were conducted in C57BL/6 mice with diet-induced obesity. […] Mice were fed a 60% high fat diet (HFD) for 8 weeks resulting in significant weight gain (FIG. 6I). During the final week of HFD feeding, SBI-993 or vehicle control was administered as a once daily dose (50 mg/kg s.c.) for 7 days.

ARRDC4 = ARRDC4 expression by quantitative RT-PCR in human myotubes; format: cell-based; settings: 24 hours
Description: FIGS. 4A-C show downregulation of TXNIP and ARRDC4 expression by SBI-477. (FIG. 4A) TXNIP and ARRDC4 mRNA levels as determined by quantitative RT-PCR in human myotubes treated with SBI-477 (10 μM) or DGAT1 inhibitor (DGATi, […]) for 24 hours in the absence or presence of 100 μM oleate (n=4). Expression is shown relative to vehicle/BSA treatment. (FIG. 4B) TXNIP gene expression following exposure to a dose range of SBI-477 for 24 hours (n=4). (FIG. 4C) Left, Effect of SBI-477 on TXNIP protein levels as determined by western blot analysis by SBI-477. Right, Quantitation of the TXNIP western blot data is shown (n=5). *p<0.05 vs. Vehicle/BSA control, †p<0.05 vs. Vehicle/oleate by one-way ANOVA with Bonferroni post hoc test. The data are shown as mean±SD.
Total RNA was isolated using RNeasy Mini Kit (Qiagen) according to the manufacturer's instructions. cDNA was synthesized using the Affinity Script cDNA Synthesis Kit (Stratagene) with 0.5 μg of total RNA. PCR reactions were performed in triplicate […] Roche LightCycler® 480 Instrument II) with specific primers for each gene.

[3] = system: C57BL/6 mice with diet-induced obesity; assay: Diet-induced obesity (60% high fat diet) mouse study; format: in vivo; settings: HFD mice
Description: Following a 5 hour fast, a blood sample was obtained from the tail tip for the measurement of baseline glucose using a hand-held glucometer (Accu-Chek Aviva Plus, Roche). A bolus of glucose (1 g/kg) was then administered via i.p. injection. Blood samples were obtained at 5, 15, 30, 60 and 90 minutes following the glucose bolus for measurement of blood glucose. For detection of insulin signaling, mice were fasted for 5 hours on the last day of the study. Gastrocnemius skeletal muscle and liver tissues were harvested 10 minutes after an acute insulin administration (1.5 U/kg, i.p.) and immediately snap frozen. The tissue samples were homogenized in RIPA buffer containing 1% NP-40, 5 mM Na4P2O7, 1 mM EDTA, 20 mM NaF, 2 mM Na3VO4, 1× Complete protease inhibitor (Roche) and 1 mM phenylmethylsulfonyl fluoride. Western blot analysis for levels of phospho-Akt (S473) and total Akt was then performed.
as §1, §2

[4] = muscle and liver, 50 mg/kg s.c. 7 days

| Structure (SMILES) | IC50 [1] | Potency compared with SBI-477 (inhibition of triglyceride accumulation, FIG. 6H) (human skeletal myotubes) | concentration at 4 h [2] | ARRDC4 expression (ARRDC4) | Glucose tolerance (1 g/kg glucose, i.p.) ([3]; 50 mg/kg s.c. 7 days) | Hepatic steatosis ([3]; 50 mg/kg s.c. 7 days) | TAG levels in skeletal muscle ([3]; 50 mg/kg s.c. 7 days) | Body weight compared to vehicle ([3]; 50 mg/kg s.c. once daily for 7 days) | Food intake ([3]; data not shown) | Occupation of ChREBP and MondoA on Txnip and Pklr gene promoters (ChIP) ([3]; liver, 1 week administration) | Insulin signaling (phosphorylated Akt S473) after acute insulin challenge ([3]; muscle and liver) | Expression of TAG synthesis and lipogenic genes [3, 4] | Txnip and Arrdc4 expression [3, 4] |
| --- | --- | --- | --- | --- | --- | --- | --- | --- | --- | --- | --- | --- | --- |
| COc1ccc(-c2csc(NC(=O)c3ccc(NCC(=O)N4CCOCC4)cc3)n2)cc1 [Cpd. 66, N-(4-(4-methoxyphenyl)thiazol-2-yl)-4-((2-morpholino-2-oxoethyl)amino)benzamide] | < 1000 nM | improved potency | 4.97 ± 0.97 µM | to a similar degree as SBI-477 | improved glucose tolerance | substantially ameliorated | significantly reduced | small but significant reduction | not due to reduced food intake | reduced in liver | improved insulin signaling | reduced the expression | reduced Txnip and Arrdc4 expression |
| COc1cc(C(=O)Nc2nc(-c3ccc(O)cc3)cs2)ccc1OCC(=O)N1CCOCC1 [Cpd. 27, N-(4-(4-hydroxyphenyl)thiazol-2-yl)-3-methoxy-4-(2-morpholino-2-oxoethoxy)benzamide] | < 1000 nM | – | – | – | – | – | – | – | – | – | – | – | – |
